Source: PubChem BioAssay (NCI)
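These data come from cells grown in 96-well plates and exposed to compound for 48 hours at five concentrations. GI50 is the concentration that inhibits growth by half. TGI: total growth inhibition.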

Columns and labels:
Assay in all cases: NCI-60 cell line screen, 48 h
A549 NSCLC = tested on: A549 NSCLC
EKVX NSCLC = tested on: EKVX NSCLC
HT29 colon = tested on: HT29 colon
OVCAR-4 ovarian = tested on: OVCAR-4 ovarian
RXF 393 renal = tested on: RXF 393 renal
U251 CNS = tested on: U251 CNS
KM12 colon = tested on: KM12 colon
SF-295 CNS = tested on: SF-295 CNS
SK-OV-3 ovarian = tested on: SK-OV-3 ovarian
HS 578T breast = tested on: HS 578T breast

Compound | TGI (A549 NSCLC) | TGI (EKVX NSCLC) | TGI (HT29 colon) | TGI (OVCAR-4 ovarian) | TGI (RXF 393 renal) | TGI (U251 CNS) | TGI (KM12 colon) | TGI (SF-295 CNS) | TGI (SK-OV-3 ovarian) | GI50 (A549 NSCLC) | GI50 (EKVX NSCLC) | GI50 (HT29 colon) | GI50 (KM12 colon) | GI50 (OVCAR-4 ovarian) | GI50 (SF-295 CNS) | GI50 (SK-OV-3 ovarian) | GI50 (U251 CNS) | GI50 (HS 578T breast) | TGI (HS 578T breast) | GI50 (RXF 393 renal)
CC(=O)O[C@@H]1CC(C)C2CC2C2=C(C(O)OC2O)[C@@H]1C(C)CCC=C(C)C (stereo partly drawn) | 51.7 µM | > 100 µM | 35.5 µM | 71.2 µM | 34.8 µM | 41.1 µM |  |  |  |  |  |  |  |  |  |  |  |  |  | 
O=Cc1[nH]c2ccccc2c1Br | > 100 µM | > 100 µM | 58.6 µM | > 100 µM | 67.8 µM | 51.1 µM | 50 µM | > 100 µM | 44.9 µM |  |  |  |  |  |  |  |  |  |  | 
Cc1cc2c(c(C#N)c1C)NC(=O)C(CC(=O)O)C2=O (stereo not drawn) | > 100 µM | > 100 µM | > 100 µM | > 100 µM | > 100 µM | > 100 µM | > 100 µM | > 100 µM | > 100 µM |  |  |  |  |  |  |  |  |  |  | 
CCCCC(=O)[O-].N.N.N.N.N.[Co+3].[O-][Cl+3]([O-])([O-])[O-] | > 100 µM | > 100 µM | > 100 µM | > 100 µM |  | > 100 µM | > 100 µM | > 100 µM | > 100 µM | > 100 µM | > 100 µM | > 100 µM | > 100 µM | > 100 µM | > 100 µM | > 100 µM | > 100 µM |  |  | 
Cc1ccc(C2=Nc3ccccc3NC(=O)C2)cc1 | > 100 µM | > 100 µM | > 100 µM | > 100 µM | > 100 µM | > 100 µM | > 100 µM | > 100 µM | > 100 µM |  |  |  |  |  |  |  |  |  |  | 
O=C(Nc1ccc(Nc2ccncc2)cc1)c1ccc(Nc2ccnc3ccc([N+](=O)[O-])cc23)cc1 | > 100 µM | > 100 µM | > 100 µM | > 100 µM |  | > 100 µM | > 100 µM |  | > 100 µM | > 100 µM | > 100 µM | > 100 µM | > 100 µM | > 100 µM |  | > 100 µM | 30.1 µM | > 100 µM | > 100 µM | 
COc1ccc(C=NC23CC4CC(CC(C4)C2)C3)cc1 | > 100 µM | > 100 µM | > 100 µM | > 100 µM | > 100 µM | > 100 µM | > 100 µM | > 100 µM | > 100 µM |  |  |  |  |  |  |  |  |  |  | 
COc1ccc2nc(NC(=O)C(=O)CC(=O)c3ccc(Cl)cc3)sc2c1 | > 100 µM | > 100 µM | > 100 µM | 53.2 µM | > 100 µM | > 100 µM | > 100 µM | > 100 µM | > 100 µM |  |  |  |  |  |  |  |  |  |  | 
C=CCN=C1N=C(CC(=O)OCC)CS1 | > 100 µM | > 100 µM | > 100 µM | > 100 µM | > 100 µM | > 100 µM | > 100 µM | > 100 µM | > 100 µM |  |  |  |  |  |  |  |  |  |  | 
CC(=S)NNC(=O)c1ccncc1 | > 100 µM | > 100 µM | > 100 µM | > 100 µM | > 100 µM | > 100 µM | > 100 µM | > 100 µM | > 100 µM |  |  |  |  |  |  |  |  |  |  | 
O=C(O)c1ccc([N+](=O)[O-])c2c(=O)c3ccccc3[nH]c12 | > 100 µM |  | > 100 µM | > 100 µM | > 100 µM | > 100 µM | > 100 µM | > 100 µM | > 100 µM |  |  |  |  |  |  |  |  |  |  | 
CC(C)(C)C(=O)C(c1ccc(-c2cscn2)cc1)c1ccc(-c2cscn2)cc1 | > 100 µM | > 100 µM | > 100 µM | 9.54 µM | 54.7 µM | > 60.8 µM | > 100 µM | 84.5 µM | 65.3 µM |  |  |  |  |  |  |  |  |  |  | 
NC(=NC1CCCCCC1)c1ccc(N2CCN(c3ccc(C(N)=NC4CCCCCC4)cc3)CC2)cc1 | > 50 µM | 23 µM | > 50 µM | > 50 µM | 35.6 µM | 11.3 µM | 30.2 µM | 19.9 µM | 44.9 µM | 9.29 µM | 1.44 µM | 9.3 µM | 8.35 µM | 26.6 µM | 3.89 µM | 15.7 µM | 3.02 µM |  |  | 9.99 µM
Cl.Fc1c[c-]c(-c2ccccn2)c(F)c1.[Pt].c1ccc([PH+](CC[PH+](c2ccccc2)c2ccccc2)c2ccccc2)cc1 |  |  |  | 1.01 µM | 0.997 µM | 1.13 µM | 0.277 µM | 0.328 µM | 0.754 µM |  |  |  | 0.0772 µM | 0.187 µM | 0.0474 µM | 0.184 µM | 0.0319 µM |  |  | 0.214 µM
CNS(=O)(=O)NN(C)S(=O)(=O)c1ccc(Br)cc1 | > 100 µM | > 100 µM | > 100 µM | > 100 µM | > 100 µM | > 100 µM | > 100 µM | > 100 µM |  |  |  |  |  |  |  |  |  |  |  | 
Cc1cc(N/N=C/c2nc(-c3ccccc3)oc2C)c2cc(Cl)ccc2n1 | 3.58 µM | 4.53 µM | 3.59 µM | 3.53 µM | 3.42 µM | 3.34 µM |  | 3.2 µM | 3.29 µM | 1.85 µM | 1.99 µM | 1.82 µM |  | 1.85 µM | 1.69 µM | 1.75 µM | 1.78 µM |  |  | 1.7 µM

Compound | TGI (A549 NSCLC) | TGI (EKVX NSCLC) | TGI (HT29 colon) | TGI (OVCAR-4 ovarian) | TGI (RXF 393 renal) | TGI (U251 CNS) | TGI (KM12 colon) | TGI (SF-295 CNS) | TGI (SK-OV-3 ovarian) | GI50 (A549 NSCLC) | GI50 (EKVX NSCLC) | GI50 (HT29 colon) | GI50 (KM12 colon) | GI50 (OVCAR-4 ovarian) | GI50 (SF-295 CNS) | GI50 (SK-OV-3 ovarian) | GI50 (U251 CNS) | GI50 (HS 578T breast) | TGI (HS 578T breast) | GI50 (RXF 393 renal)
COc1ccc(/C=C2\CNC/C(=C\c3ccc(OC)cc3)C2=O)cc1 | > 100 µM | > 100 µM | > 100 µM | > 100 µM | 53.8 µM | > 100 µM | > 100 µM | > 100 µM | > 100 µM |  |  |  |  |  |  |  |  |  |  | 
O=C1NC2(O)c3ccccc3C(=O)C2(O)N1c1ccccc1 (stereo not drawn) | > 100 µM | > 100 µM | > 100 µM | > 100 µM |  | > 100 µM | > 100 µM | > 100 µM | > 100 µM |  |  |  |  |  |  |  |  |  |  | 
COc1cc2c(cc1OC)[C@@H](C(O)c1ccccc1)NCC2 (stereo partly drawn) | > 100 µM | > 100 µM | > 100 µM | > 100 µM | > 100 µM | > 100 µM | > 100 µM | > 100 µM | > 100 µM |  |  |  |  |  |  |  |  |  |  | 
O[C@]12CCCC[C@H]1CCC2 | > 100 µM | > 100 µM | > 100 µM | > 100 µM | > 100 µM | > 100 µM | > 100 µM | > 100 µM | > 100 µM |  |  |  |  |  |  |  |  |  |  | 
O=C(N/N=C/c1cc(Br)cc(Br)c1[O-])c1ccccc1O.O=C(N/N=C/c1cc(Br)cc(Br)c1[O-])c1ccccc1O.[Mn+2] | 25.5 µM | 34.6 µM | 22.3 µM | 17.5 µM | 28.4 µM | 14.8 µM | 22.9 µM | 13.7 µM | 33.8 µM |  |  |  |  |  |  |  |  |  |  | 
CN(C)c1ccc(/C=C2\N=C(c3ccc(N)cc3)OC2=O)cc1 | > 100 µM | > 100 µM | > 100 µM | > 100 µM |  | > 100 µM | > 100 µM | > 100 µM | > 100 µM |  |  |  |  |  |  |  |  |  |  | 
CCN(CC)C(=S)N/N=C(\C)c1ccccc1O | 43.4 µM | > 100 µM | 48 µM | > 100 µM | > 100 µM | 89 µM | > 100 µM | > 100 µM | 79 µM |  |  |  |  |  |  |  |  |  |  | 
COC1=C(C(=O)OC(C)(C)C)[C@]2(C)C(C(=O)OC(C)(C)C)C(OC)=C(C(=O)OC(C)(C)C)[C@]2(C)C1C(=O)OC(C)(C)C (stereo partly drawn) | > 100 µM | > 100 µM | > 100 µM | > 100 µM | > 100 µM | > 100 µM | > 100 µM | > 100 µM | > 100 µM |  |  |  |  |  |  |  |  |  |  | 
Cc1c(C(=O)CC(=O)C(=O)Nc2cccc(C(F)(F)F)c2)[n+](=O)c2ccccc2n1[O-] | 32.1 µM | 20.3 µM | 17.8 µM | 13.3 µM | 39.5 µM | 11 µM | 21.7 µM | 23.4 µM | 50.2 µM |  |  |  |  |  |  |  |  |  |  | 
NC1CCC[C@@H](O)[C@H]1O (stereo partly drawn) | > 100 µM | > 100 µM | > 100 µM |  |  | > 100 µM | > 100 µM | > 100 µM | > 100 µM |  |  |  |  |  |  |  |  |  | > 100 µM | 
Clc1cc(Cl)cc(N2N=C(c3cccc(Nc4ccncc4)c3)CC2c2ccc(Br)cc2)c1 (stereo not drawn) |  | 3.2 µM | 3.66 µM | 2.96 µM |  |  | 3.18 µM | 3.2 µM | 4.11 µM |  | 1.6 µM | 1.87 µM | 1.69 µM | 1.6 µM | 1.79 µM | 2.01 µM |  |  |  | 
Cc1cccc(C)c1NC(=O)C(=O)CC(=O)CO | > 100 µM | > 100 µM | > 100 µM | > 100 µM | > 100 µM | > 100 µM | > 100 µM | > 100 µM | > 100 µM |  |  |  |  |  |  |  |  |  |  | 
Cc1nc(NC(=S)Nc2ccc(F)cc2)sc1C(=O)NNC(=S)Nc1ccc(F)cc1 | 45.5 µM | > 100 µM | 25.3 µM | 60 µM |  |  | 13.4 µM | 21.1 µM | 61.6 µM | 5.29 µM | 4.61 µM | 8.58 µM | 3.11 µM | 5.55 µM | 3.96 µM | 15.7 µM |  | 11.4 µM | 38 µM | 
N#CC(C#N)=CN1CCN(C(=O)c2ccccc2)C1=S | > 100 µM | 11.4 µM | > 100 µM | > 100 µM | 70.7 µM | > 100 µM | 86.7 µM | > 100 µM | > 100 µM | 37.1 µM | 3.48 µM | 42 µM | 32.3 µM | 59.3 µM | 46.2 µM | 66.7 µM | 38.2 µM |  |  | 22.7 µM
COC1CC(OS(=O)(=O)c2ccc(C)cc2)C(OS(=O)(=O)c2ccc(C)cc2)C(COS(=O)(=O)c2ccc(C)cc2)O1 (stereo not drawn) | 19.3 µM | 24.4 µM | 15.1 µM | 1.12 µM | 4.64 µM | 11.6 µM | > 100 µM | 4.38 µM | 8.62 µM |  |  |  |  |  |  |  |  |  |  | 
